In data set [1] the test system is metastatic PDAC. As to conditions: patients with metastatic PDAC; p<0.001; cited from earlier work.
In data set [2] the test system is metastatic PDAC. As to conditions: patients with metastatic PDAC, first-line; p<0.001; cited from earlier work.
The target of data set [3] is neurotensin receptor 2 (NTR2) (Homo sapiens, UniProt O95665). The conditions noted are these: unlike NTR1; cited from earlier work.
A short description of data set [4]: Toxicity: weight loss of treated mice. The data set is classed as in vivo. The conditions noted are these: AsPC-1 study mice; combination Groups 2E, 5E, 6E; Gemcitabine/Abraxane Group 3E; ^177Lu-IPN01087 Groups 4E, 7E. As for the experimental part:
^177Lu-IPN01087 and the reference substances were administered by intravenous injection (IV) into the caudal vein via a catheter. The recommended pH formulation for IV administration is pH 4.5-8.0. […]

The test system of data set [5] is subcutaneous HT-29 tumors. The data set is described as follows: Efficacy study on mice bearing subcutaneous HT-29 tumors (tumor volume). It is filed as in vivo. As for the experimental part: The HT-29 cell line was established from the primary tumor of a patient with colon adenocarcinoma (Fogh J et al., J. Natl. Cancer Inst. 1977 Jul. 59(1): 221-26).
(§1) Tumor cells were grown as monolayer at 37° C. in a humidified atmosphere (5% CO2, 95% air). The culture medium was RPMI 1640 containing 2 mM L-glutamine supplemented with 10% fetal bovine serum. For experimental use, tumor cells were detached from the culture flask using accutase and neutralized by the addition of complete culture medium. The cells were counted, and viability exceeded 85% as assessed by 0.25% trypan blue exclusion assay. Two frozen pellets of HT29 tumor cells were prepared: one frozen cell pellet prepared during the in-vitro cell culture, and one frozen cell pellet prepared using the cell suspension used for tumor induction in mice.
Healthy female Swiss Nude mice (Crl:NU(Ico)-Foxn1nu), 7 weeks old at reception, were obtained from Charles River.
Tumors were induced by subcutaneous injection of 1×10^7 HT29 cells in 200 μL of RPMI 1640 medium containing matrigel (50:50, v:v, ref: 356237, BD Biosciences, France) into the right flank (in the axis of the heart) of 160 animals. HT29 tumor cell implantation was performed 24 hours after a whole-body irradiation with a gamma source (2 Gy (Nude mice), 60Co, BioMep, France). The day of tumor induction was considered as the day −11 (D-11). […]

Data set [6] has as its system subcutaneous AsPC1 tumors. The data set is described as follows: Efficacy study on mice bearing subcutaneous AsPC-1 tumors (tumor volume). The data set is classed as in vivo. Here is the method: The AsPC 1 cell line was isolated from a metastatic site (ascites) from a patient (Chen W H. et al., In Vitro. 1982 Jan; 18(1):24-34).
as §1, with “mice” for “mice.”
Healthy female Swiss Nude mice (Crl:NU(Ico)-Foxn1^nu), 6 weeks old at reception, were obtained from Charles River.
Tumors were induced by subcutaneous injection of 1×10^7 AsPC 1 cells in 200 μL of RPMI 1640 medium containing matrigel (50:50, v:v, ref: 356237, BD Biosciences, France) into the right flank (in the axis of the heart) of 150 animals. AsPC 1 tumor cell implantation was performed 72 hours after whole-body irradiation with a gamma source (2 Gy (Nude mice), 60Co, BioMep, France).
Animals were randomized by individual tumor volume when tumors reach a mean volume of 150-200 mm3. […]

The mark [7] stands for this setting: in combination with gemcitabine and nab-paclitaxel chemotherapy regimen.

Results on four compounds are retold here after patent publication US20240197927A1, “COMBINATION COMPRISING A NEUROTENSIN RECEPTOR BINDING COMPOUND, GEMCITABINE AND NAB-PACLITAXEL” (Fusion Pharmaceuticals Inc., priority 2021, published 2024).

neurotensin receptor 2 (NTR2), sequence (O95665 whole entry, species assumed): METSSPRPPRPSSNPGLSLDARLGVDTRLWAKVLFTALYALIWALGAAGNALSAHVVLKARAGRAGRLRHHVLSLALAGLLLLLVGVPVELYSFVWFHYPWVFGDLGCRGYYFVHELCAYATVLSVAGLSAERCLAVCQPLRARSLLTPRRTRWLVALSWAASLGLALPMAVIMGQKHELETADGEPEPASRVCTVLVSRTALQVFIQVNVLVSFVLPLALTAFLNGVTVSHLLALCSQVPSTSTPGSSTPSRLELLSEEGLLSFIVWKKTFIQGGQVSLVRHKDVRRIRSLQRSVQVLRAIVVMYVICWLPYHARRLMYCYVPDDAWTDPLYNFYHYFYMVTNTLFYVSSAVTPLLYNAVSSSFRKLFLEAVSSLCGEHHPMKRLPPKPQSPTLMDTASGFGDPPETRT

FOLFIRINOX: in data set [1], the ORR is 31.6%, the “median OS” value is recorded as 11.1 months and the “median PFS” value is reported as 6.4 months.
Regarding `Nc1ccn([C@@H]2O[C@H](CO)[C@@H](O)C2(F)F)c(=O)n1` [gemcitabine], in data set [1], the ORR is reported as 9.4%, the “median OS” value is 6.8 months and the “median PFS” value was 3.3 months. In data set [2], the “overall response rate (ORR)” value was 7%, the “overall survival (OS)” value is reported as 6.7 months and the “progression-free survival (PFS)” value is 3.7 months.
As to `C[C@@H]1CN([C@H]2CC[C@](C#N)(c3ccc(F)cc3)CC2)CC[C@]1(C(=O)O)c1ccccc1` [levocabastine], the “affinity for NTR2” value in data set [3] is listed as “high affinity”.
For the compound “^177Lu-zalsenertant tetraxetan [^177Lu-IPN01087]”, in data set [4], the mean weight losses is −4% to −10%. The “overall effect in the HT-29 colon cancer model compared to chemotherapy or radiotherapy regimens alone” value in data set [5] (setting [7]) was “improved tumor growth control”. The “HT-29 tumor growth, effect as compared to the vehicles” value in data set [5] (single treatments, FIG. 2: Group 3 (GEM-ABX), Group 4 (^177Lu-IPN01087 @17MBq), IV) is listed as “inhibitory effect on tumor growth”. In addition, the “overall effect in the AsPC-1 pancreatic cancer model compared to chemotherapy or radiotherapy regimens alone” value in data set [6] (setting [7]) was “prolonged regression”. Further, in data set [6] (treatment alone, FIG. 7: Group 3E (GEM-ABX), Group 4E (^177Lu-IPN01087 @19MBq), IV), the “AsPC-1 tumor growth, effect compared to the vehicles” value was “antitumor effect”.
